Test results from the NIST ThermoML archive (doi:10.1007/s10765-013-1469-0).

Assay: xn = mol fraction of the nth substance listed
Conditions: 101 kPa, Liquid; for viscosity: Concentric cylinders viscometry; for mass density: Vibrating tube method

COCCOCCOCCOCCOC [2,5,8,11,14-pentaoxapentadecane] + CCCCO
Conditions | mass density [kg/m3] | viscosity [mPa·s]
288.15 K, x2 = 0 | 1015.63 | 4.341
288.15 K, x2 = 0.1013 | 1006.51 | 4.077
288.15 K, x2 = 0.2236 | 993.986 | 3.779
288.15 K, x2 = 0.3036 | 984.642 | 3.567
288.15 K, x2 = 0.4131 | 969.983 | 3.317
288.15 K, x2 = 0.5065 | 955.349 | 3.129
288.15 K, x2 = 0.5996 | 938.288 | 2.945
288.15 K, x2 = 0.7007 | 916.154 | 2.795
288.15 K, x2 = 0.7991 | 889.873 | 2.74
288.15 K, x2 = 0.8996 | 856.379 | 2.875
293.15 K, x2 = 0 | 1011 | 3.834
293.15 K, x2 = 0.1013 | 1001.91 | 3.591
293.15 K, x2 = 0.2236 | 989.415 | 3.315
293.15 K, x2 = 0.3036 | 980.1 | 3.139
293.15 K, x2 = 0.4131 | 965.493 | 2.922
293.15 K, x2 = 0.5065 | 950.916 | 2.77
293.15 K, x2 = 0.5996 | 933.921 | 2.603
293.15 K, x2 = 0.7007 | 911.881 | 2.474
293.15 K, x2 = 0.7991 | 885.715 | 2.428
293.15 K, x2 = 0.8996 | 852.384 | 2.546
298.15 K, x2 = 0 | 1006.36 | 3.38
298.15 K, x2 = 0.1013 | 997.307 | 3.152
298.15 K, x2 = 0.2236 | 984.881 | 2.93
298.15 K, x2 = 0.3036 | 975.56 | 2.783
298.15 K, x2 = 0.4131 | 960.897 | 2.599
298.15 K, x2 = 0.5065 | 946.305 | 2.462
298.15 K, x2 = 0.5996 | 929.548 | 2.321
298.15 K, x2 = 0.7007 | 907.599 | 2.206
298.15 K, x2 = 0.7991 | 881.548 | 2.165
298.15 K, x2 = 0.8996 | 848.369 | 2.263
303.15 K, x2 = 0 | 1001.73 | 3.004
303.15 K, x2 = 0.1013 | 992.702 | 2.814
303.15 K, x2 = 0.2236 | 980.276 | 2.62
303.15 K, x2 = 0.3036 | 971.014 | 2.488
303.15 K, x2 = 0.4131 | 956.499 | 2.328
303.15 K, x2 = 0.5065 | 942.026 | 2.208
303.15 K, x2 = 0.5996 | 925.164 | 2.087
303.15 K, x2 = 0.7007 | 903.304 | 1.987
303.15 K, x2 = 0.7991 | 877.365 | 1.945
303.15 K, x2 = 0.8996 | 844.334 | 2.015
308.15 K, x2 = 0 | 997.104 | 2.691
308.15 K, x2 = 0.1013 | 988.097 | 2.525
308.15 K, x2 = 0.2236 | 975.701 | 2.357
308.15 K, x2 = 0.3036 | 966.466 | 2.241
308.15 K, x2 = 0.4131 | 951.994 | 2.1
308.15 K, x2 = 0.5065 | 937.569 | 1.991
308.15 K, x2 = 0.5996 | 920.77 | 1.885
308.15 K, x2 = 0.7007 | 898.993 | 1.796
308.15 K, x2 = 0.7991 | 873.162 | 1.757
308.15 K, x2 = 0.8996 | 840.275 | 1.807
313.15 K, x2 = 0 | 992.481 | 2.426
313.15 K, x2 = 0.1013 | 983.495 | 2.278
313.15 K, x2 = 0.2236 | 971.126 | 2.134
313.15 K, x2 = 0.3036 | 961.914 | 2.034
313.15 K, x2 = 0.4131 | 947.487 | 1.905
313.15 K, x2 = 0.5065 | 933.108 | 1.812
313.15 K, x2 = 0.5996 | 916.363 | 1.712
313.15 K, x2 = 0.7007 | 894.665 | 1.631
313.15 K, x2 = 0.7991 | 868.935 | 1.592
313.15 K, x2 = 0.8996 | 836.188 | 1.628
318.15 K, x2 = 0 | 987.859 | 2.199
318.15 K, x2 = 0.1013 | 978.879 | 2.074
318.15 K, x2 = 0.2236 | 966.542 | 1.942
318.15 K, x2 = 0.3036 | 957.357 | 1.853
318.15 K, x2 = 0.4131 | 942.969 | 1.738
318.15 K, x2 = 0.5065 | 928.631 | 1.653
318.15 K, x2 = 0.5996 | 911.939 | 1.562
318.15 K, x2 = 0.7007 | 890.317 | 1.488
318.15 K, x2 = 0.7991 | 864.686 | 1.45
318.15 K, x2 = 0.8996 | 832.069 | 1.47
323.15 K, x2 = 0 | 983.234 | 2.006
323.15 K, x2 = 0.1013 | 974.275 | 1.892
323.15 K, x2 = 0.2236 | 961.962 | 1.777
323.15 K, x2 = 0.3036 | 952.794 | 1.698
323.15 K, x2 = 0.4131 | 938.437 | 1.592
323.15 K, x2 = 0.5065 | 924.136 | 1.515
323.15 K, x2 = 0.5996 | 907.495 | 1.432
323.15 K, x2 = 0.7007 | 885.946 | 1.362
323.15 K, x2 = 0.7991 | 860.406 | 1.325
323.15 K, x2 = 0.8996 | 827.911 | 1.334
328.15 K, x2 = 0 | 978.613 | 1.838
328.15 K, x2 = 0.1013 | 969.653 | 1.736
328.15 K, x2 = 0.2236 | 957.366 | 1.633
328.15 K, x2 = 0.3036 | 948.222 | 1.558
328.15 K, x2 = 0.4131 | 933.901 | 1.465
328.15 K, x2 = 0.5065 | 919.635 | 1.394
328.15 K, x2 = 0.5996 | 903.036 | 1.318
328.15 K, x2 = 0.7007 | 881.55 | 1.254
328.15 K, x2 = 0.7991 | 856.094 | 1.213
328.15 K, x2 = 0.8996 | 823.712 | 1.209
333.15 K, x2 = 0 | 973.989 | 1.691
333.15 K, x2 = 0.1013 | 965.036 | 1.612
333.15 K, x2 = 0.2236 | 952.77 | 1.516
333.15 K, x2 = 0.3036 | 943.642 | 1.448
333.15 K, x2 = 0.4131 | 929.347 | 1.359
333.15 K, x2 = 0.5065 | 915.11 | 1.289
333.15 K, x2 = 0.5996 | 898.551 | 1.223
333.15 K, x2 = 0.7007 | 877.126 | 1.161
333.15 K, x2 = 0.7991 | 851.747 | 1.119
333.15 K, x2 = 0.8996 | 819.469 | 1.104
